Test results as given in article PMC12476894, “Identification of α‑Azacyclic Acetamide-Based Inhibitors of P. falciparum Na^+ Pump (PfATP4) with Fast-Killing Asexual Blood-Stage Antimalarial Activity by Phenotypic Screening” (ACS Infectious Diseases, 2025).
Read-outs that look alike come from different tables or passages of the source.

How the values were obtained:
[1] = system: P. falciparum NF54^luc parasites; experiment: 72 h SYBR Green growth inhibition, PfNF54^luc; assay type: cell-based; conditions: Plasmodium falciparum
[2] = system: P. falciparum NF54^luc parasites; experiment: Luciferase reporter (LR) / BRRoK assay, PfNF54^luc; assay type: cell-based, Plasmodium falciparum; conditions: for EC50: Plasmodium falciparum, NF54, Hec50, luciferase reporter
[3] = system: P. falciparum NF54^luc parasites; experiment: Luciferase reporter (LR) / BRRoK assay, PfNF54^luc; assay type: cell-based; conditions: Plasmodium falciparum, NF54, Hec50, 72 h
[4] = system: Pf3D7 trophozoites, pHcyt (PfATP4 and other plasma membrane transporters); parameters: method as in previous study; conditions: all conditions, versus solvent control 0.1% DMSO; ref previous study; cited from earlier work
[5] = system: Dd2^P412L (PfATP4^P412L); experiment: Drug susceptibility assay for cross-resistance profiling (Fidock Lab), P412L; assay type: cell-based, Plasmodium falciparum; conditions: Table 3 data set
[6] = system: Dd2-B2 (PfATP4^WT); experiment: Drug susceptibility assay for cross-resistance profiling (Fidock Lab), parental line; assay type: cell-based, Plasmodium falciparum; conditions: for EC50: Plasmodium falciparum
[7] = system: Dd2^L350H (PfATP4^L350H); experiment: Drug susceptibility assay for cross-resistance profiling (Fidock Lab), L350H; assay type: cell-based, Plasmodium falciparum; conditions: Table 3 data set
[8] = system: P. falciparum Dd2 (PfDd2) parasites; experiment: 72 h SYBR Green growth inhibition, ABS P. falciparum Dd2 (Phillips Lab); assay type: cell-based, Plasmodium falciparum; conditions: read-out: PfDd2 EC50
[9] = system: PfD10 attB; experiment: 72 h SYBR Green growth inhibition, PfD10 attB; assay type: cell-based; conditions: Plasmodium falciparum; 72 h SYBR Green assay
[10] = system: Dd2 PfATP4^P412L mutant clones; experiment: 72 h SYBR Green growth inhibition, 2-selected Dd2 clones with PfATP4 P412L (Phillips Lab); assay type: cell-based, Plasmodium falciparum
Protocol: (§1) To confirm the MOA for the α-azacyclic acetamides against P. falciparum and to obtain potential information about whether or not they bind PfATP4 at an overlapping site with that of KAE609, we undertook resistance selections using PfDd2 parasites using the published cycling drug selection method. , α-Azacyclic acetamides 2 and 3 were chosen as representative examples of the pyrrole- and indole-based series, respectively. […] Additional cycles were performed at 20 × EC50, until resistant parasites were detected based on a fold change in EC50 compared to the parental clonal Dd2 line (Table S3). Resistant parasites were detected in the 2-selections in all 4 flasks after 4 pulses and for 3-selections in 3 flasks after 5 pulses. Clonal lines were generated from each flask, and one clone per flask was selected for WGS and EC50 determination (Tables S4 and S5). WGS analysis identified two single point mutations in PfATP4 that were not present in the original clonal Dd2 parasite line (Tables and S4). P412L was found in three of four flasks containing 2-selected resistance clones, and F917L was identified in all three flasks containing 3-selected clones and in the fourth flask containing 2-selected clones (Table S4). PfATP4 mutations identified by the WGS analysis in parasite lines were verified by PCR of the pfatp4 gene, followed by Sanger sequencing (Figures S5, S6 and Table S6). An additional protein coding gene (ribosomal protein S8e) was mutated in the 2-selections. However, this mutation was identified in only one of four sequenced clones and is therefore unlikely to be related to resistance to 2 (Figure S7). All three resistant clones derived from the 3-selections harbored an identical mutation in a gene (pfcpu) encoding a conserved protein of unknown function, which was absent in the parental line (Figure S8).
(§2) ABS P. falciparum 3D7, Dd2 or PfNF54^luc parasites (BEI resources) were cultured in RPMI 1640 medium (Millipore Sigma), supplemented with 25 mM HEPES, 0.5% Albumax-I (Thermo Scientific), 23 mM sodium bicarbonate, 92 μM hypoxanthine, and 10 μg/mL gentamicin sulfate at 37 °C, 5% CO2, using deidentified O^+ red blood cells (BioIVT) as previously described. − Growth inhibition assays were conducted in 96 well plate format using the SYBR Green or luciferase reporter assay depending on the strain with modifications as described , (see Supporting Information for a detailed description). Details for the luciferase reporter assay are described below under the BRRoK assay section.
(§3) EC50 and CC50 values were determined by nonlinear regression performed in GraphPad Prism Version 10. Unless otherwise specified, data were fitted to the log(inhibitor) vs response–variable slope with four parameters equation. […] For mutant cell lines and compound combinations where bottom plateau of zero growth was not reached, the bottom of the curve was defined at 0% based on background values obtained for parental Dd2 from the same study.
(§4) Resistant Dd2 parasites were selected using a high-pressure intermittent selection protocol using a previously described method. Selections were set up using 4 flasks per compound starting with approximately 3 × 10^9 parasites per flask (80 mL per flask, 4% hematocrit, 3% parasitemia at the beginning of each pulse, mostly ring-stage parasites via previous sorbitol synchronization. Pulse 1 and 2 (48 h) were conducted at 10xEC50, and subsequent pulses were conducted at 20xEC50. Parasites cleared within 48 h under these conditions. 3-Selections used a total of 4 pulses, while 2-selections required 5 pulses before resistant parasites emerged (Table S3). Culture media was replenished daily for a week after each pulse, then every 2 days with weekly replenishment of blood. Cultures were monitored by microscopy until recrudescence. Clonal parasites were obtained from each flask by limiting dilution and maintained in drug free RPMI-1640 media prior to being analyzed for EC50 shifts. […]

[11] = system: Pf3D7 trophozoite-stage parasites, cytosolic pH (pHcyt); cell-based assay for ATP4 inhibition; experiment: P. falciparum cytosolic dose response pH assay (BCECF, with concanamycin A)
[12] = system: P. falciparum 3D7 parasites (Pf3D7); experiment: 72 h SYBR Green growth inhibition, ABS P. falciparum 3D7 (Phillips Lab); assay type: cell-based, Plasmodium falciparum; conditions: for EC50: 72 h SYBR Green assay, mean ± SEM (n); for reduction of activity relative to 2: P. falciparum 3D7 and Dd2 parasites, analogs of 2
[13] = system: Dd2 PfATP4^F917L mutant clones; experiment: 72 h SYBR Green growth inhibition, 2- or 3-selected Dd2 clones with PfATP4 F917L (Phillips Lab); assay type: cell-based, Plasmodium falciparum
Protocol: as §1, §2, §3, §4

[14] = 72 h SYBR Green assay, read-out: PfNF54^luc EC50
[15] = Plasmodium falciparum, DD2, 15-selected line
[16] = 72 h SYBR Green assay, mean ± SEM (n)

Q: For C[C@@H]1CC[C@H]2[C@@H](C)C(=O)O[C@@H]3O[C@@]4(C)CC[C@@H]1[C@]32OO4 [ART, artemisinin, reference compound], which EC50 [1, 14] is on record?
A: 10 nM

Q: And the EC50 ([1]; 72 h SYBR Green, as listed in supplementary methods, read-out: EC50 values used for BRRoK concentration range (72h SYBR Green assay vs PfNF54luc))?
A: 9.7 nM

Q: What about the EC50 ([2]; 6 h) of the same compound?
A: 80 nM

Q: What about the “6 h EC50 relative to 72 h SYBR Green and LR EC50” value ([2]; higher at 6 h) of the same compound?
A: 10–20 fold

Q: What about the EC50 [3] of the same compound?
A: 4 nM

Q: For C[C@H]1[C@@H](O)O[C@@H]2O[C@@]3(C)CC[C@H]4[C@H](C)CC[C@@H]1[C@@]24OO3 [DHA, dihydroartemisinin, reference compound], which “pH fingerprint traces (in words)” value [4] is on record?
A: overlapped with those of the solvent control

Q: What about the EC50 [5, 15] of the same compound?
A: 2.7 ± 0.15 nM

Q: And the “EC50 fold-change vs Dd2-B2, Dd2^P412L” value [5]?
A: 1.4 fold

Q: And the EC50 ([6]; DD2, 72 h, read-out: EC50, Dd2-B2)?
A: 2 ± 0.09 nM

Q: And the EC50 [7, 15]?
A: 2.4 ± 0.23 nM

Q: And the “EC50 fold-change vs Dd2-B2, Dd2^L350H” value [7]?
A: 1.2 fold

Q: Which results are given for Cc1cc(Nc2ccc(S(F)(F)(F)(F)F)cc2)n2nc(C(C)(F)F)nc2n1 [DSM265, reference compound]?
A: EC50 ([8]; Plasmodium falciparum, DD2, 72 h): 8.6 ± 0.36 nM; EC50 [9]: 12 nM; EC50 [1, 14]: 8.6 ± 0.3 nM; BRRoK assay, luciferase activity after 6 h treatment (kill rate, in words) ([2]; 6 h, 47x to 0.04x EC50): did not reduce parasite levels in the 6 h treatment window; EC50 ([2]; 6 h): > 240 nM; EC50 ([10]; Plasmodium falciparum, DD2, read-out: EC50, 2-selected flask #3 clone F5): 8.5 ± 1.4 nM; Fold EC50 change compared to WT Dd2, 2-selected flask #3 clone F5 ([10]; {}): 0.99 fold; effect on parasite cytosolic pH (pHcyt) in presence of CMA (in words) ([11]; Pf3D7, CMA 50 nM): no impact on pH; EC50 ([11]; Plasmodium falciparum, read-out: Pf3D7 pH EC50): > 400 nM; EC50 ([12]; Plasmodium falciparum, 3D7): 6.6 ± 0.36 nM; EC50 [3]: 6.8 ± 0.69 nM; EC50 ([13]; Plasmodium falciparum, DD2, read-out: EC50, 3-selected flask #3 clone D8): 7.3 ± 0.13 nM; Fold EC50 change compared to WT Dd2, 3-selected flask #3 clone D8 ([13]; {}): 0.85 fold

Q: With N#Cc1cc(NC(=O)[C@H]2c3ccccc3C(=O)N(CC(F)(F)F)[C@@H]2c2cccnc2)ccc1F [SJ733] as the compound, how does the EC50 ([6]; DD2, read-out: EC50, Dd2-B2) read?
A: 130 nM

Q: And the “Fold change, Dd2-B2” value ([6]; parent, Table S8)?
A: 1 fold

Q: Which “pH fingerprint traces (in words)” value [4] does the source give for O=C1C(O)=C([C@H]2CC[C@H](c3ccc(Cl)cc3)CC2)C(=O)c2ccccc21 [atovaquone] here?
A: overlapped with those of the solvent control

Q: For CCN(CC)CCCC(C)Nc1ccnc2cc(Cl)ccc12 (stereo not shown) [chloroquine], which “pH fingerprint traces (in words)” value [4] is on record?
A: overlapped with those of the solvent control

Q: Which results are given for Cc1ccc(NC(=O)Cn2cccc2-c2nc(-c3ccccc3)cs2)nc1 [compound 5, N-(5-methylpyridin-2-yl)-2-[2-(4-phenyl-1,3-thiazol-2-yl)-1H-pyrrol-1-yl]acetamide]?
A: EC50 [8, 16]: 9600 ± 440 nM; EC50 [12]: 10000 ± 30 nM; reduction of activity relative to 2 [12]: 10–20 fold

Q: Which results are given for Cc1cccc(NC(=O)Cn2cccc2-c2nc(-c3ccccc3)cs2)n1 [compound 6, N-(6-methylpyridin-2-yl)-2-[2-(4-phenyl-1,3-thiazol-2-yl)-1H-pyrrol-1-yl]acetamide]?
A: EC50 [8, 16]: 12000 ± 1100 nM; EC50 [12]: 15000 ± 870 nM; reduction of activity relative to 2 [12]: 10–20 fold
